These results are taken from PubChem BioAssay (NCI).

Several values for one entry are separate records, joined by “and”; a condition that tells them apart may be missing. Equal values may be shown once.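 Method: 48-hour compound exposure of cells in 96-well plates, five concentrations, linear interpolation of endpoints. GI50 = concentration required for 50% inhibition of growth. TGI is the concentration that stops growth completely.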

The test system of the first assay is RXF 393 renal. Briefly: DTP human tumour cell line panel, 48 h.
The term GI50 denotes the concentration that inhibits growth by half. The term TGI denotes the concentration giving total growth inhibition. Turning to `COC12C=C/C(=C(/C(=O)OCc3ccncc3)C(=O)CCCCCCCCC3(OC)C=C/C(=C(/C(=O)OCc4ccncc4)C(=O)CCCCCCCC1)O3)O2`, the GI50 was 0.277 µM and the TGI was 0.896 µM.
`CCOC(=O)C(C)(C)Oc1ccc2c(C)c(-c3ccc(Cl)cc3)c(=O)oc2c1` showed a TGI of more than 100 µM.
In the case of `COc1cc(CNCCCN2C(=O)c3ccc4c5c(ccc(c35)C2=O)C(=O)N(CCCNCc2cc(OC)c(OC)c(OC)c2)C4=O)cc(OC)c1OC`, the GI50 is 0.35 µM and the TGI was 0.99 µM.
`O=c1[nH]c(=O)n(C2CC(O)C(CO)O2)cc1CO` (configuration not stated): the GI50 was more than 100 µM and the TGI is more than 100 µM.
Take `Cc1nc2cnc(N)c(C#Cc3cncc(C(=O)Nc4ccc(CN5CCN(C)CC5)c(C(F)(F)F)c4)c3)c2nc1C`: the GI50 is 0.515 µM and the TGI is 1.93 µM.
As to `Cc1csc(Nc2nc(-c3cccc(Br)c3)nc(C(Cl)(Cl)Cl)n2)n1`, the GI50 is 1 µM and the TGI was 4.04 µM.
Consider `CS(=O)(=O)CCCn1c(=O)c(Oc2ccc(F)cc2F)cc2cnc(NC3CCOCC3)nc21`, for which the GI50 was more than 25 µM and the TGI is more than 25 µM.
As for `N#C/C=C(\c1ccc([N+](=O)[O-])cc1)n1nnc2cc(Cl)c(Cl)cc21`, the GI50 was 1.82 µM and the TGI worked out at 3.77 µM.
Molecule `O=C(CC(O)(C(F)(F)F)C(F)(F)F)c1cc(CC(=O)C(O)(C(F)(F)F)C(F)(F)F)cc(CC(=O)C(O)(C(F)(F)F)C(F)(F)F)c1` registered a TGI of 4.43 µM.
The molecule `CCc1c(OC(C)=O)c2c(NC3OC(COC(C)=O)C(OC(C)=O)C(OC(C)=O)C3OC(C)=O)nc(OC)nc2oc1=O` (configuration not stated) registered a TGI of more than 100 µM.
Same read-out and setting: under `O=c1c2ccccc2sc2cccc(NCCCN3CCN(CCCNc4cccc5sc6ccccc6c(=O)c45)CC3)c12` stands more than 100 µM.
Take `CC1(C)OCCn2c1nc1c(N3CCOCC3)nc(-c3cnc(N)nc3)nc12`: the GI50 was 0.211 µM and the TGI worked out at 1.69 µM.
`O=C(c1c(F)ccc(NS(=O)(=O)N2CC[C@@H](F)C2)c1F)c1c[nH]c2ncc(-c3cnc(C4CC4)nc3)cc12`: the GI50 was 3.46 µM and 4.36 µM; the TGI is > 10 µM and 25 µM.
`COc1cc(-c2nn(-c3cccc(NC(=O)Nc4ccc(Cl)c(Cl)c4)c3)cc2-c2ccncc2)ccc1Cl`: the GI50 is 0.859 µM and the TGI was 2.44 µM.
In turn, `O=[N+]([O-])c1ccc(-n2nnc(C3=NCCN3)c2-c2ccc(Cl)cc2)cc1` came in with a TGI of more than 100 µM.
In turn, `O=C(c1ccc(Cl)cc1)c1cnc(Nc2ccccc2Cl)s1` yielded a TGI of 42.8 µM.
`Nc1nc(N)c(N=Nc2ccc([As](=O)(O)O)cc2)c(=O)[nH]1`: the TGI is more than 100 µM.

The next assay has as its system A549 NSCLC. The assay is described as follows: DTP human tumour cell line panel, 48 h.
For the molecule `COC12C=C/C(=C(/C(=O)OCc3ccncc3)C(=O)CCCCCCCCC3(OC)C=C/C(=C(/C(=O)OCc4ccncc4)C(=O)CCCCCCCC1)O3)O2`, the GI50 was 0.979 µM and the TGI amounted to 2.8 µM.
Consider `CCOC(=O)C(C)(C)Oc1ccc2c(C)c(-c3ccc(Cl)cc3)c(=O)oc2c1`, for which the TGI was more than 100 µM.
In the case of `COc1cc(CNCCCN2C(=O)c3ccc4c5c(ccc(c35)C2=O)C(=O)N(CCCNCc2cc(OC)c(OC)c(OC)c2)C4=O)cc(OC)c1OC`, the concentration for 50% growth inhibition (GI50) was 0.305 µM and the TGI was 0.977 µM.
Take `O=c1[nH]c(=O)n(C2CC(O)C(CO)O2)cc1CO` (configuration not stated): the GI50 is more than 100 µM and the TGI is more than 100 µM.
For `Cc1nc2cnc(N)c(C#Cc3cncc(C(=O)Nc4ccc(CN5CCN(C)CC5)c(C(F)(F)F)c4)c3)c2nc1C`, the GI50 was 0.614 µM and the total growth inhibition concentration (TGI) was found to be 5.71 µM.
Regarding `Cc1csc(Nc2nc(-c3cccc(Br)c3)nc(C(Cl)(Cl)Cl)n2)n1`, the GI50 was 1.61 µM and the TGI was found to be 7.28 µM.
On the same counts, the results for `CS(=O)(=O)CCCn1c(=O)c(Oc2ccc(F)cc2F)cc2cnc(NC3CCOCC3)nc21` are more than 25 µM and more than 25 µM.
With `N#C/C=C(\c1ccc([N+](=O)[O-])cc1)n1nnc2cc(Cl)c(Cl)cc21`, the GI50 is 3.45 µM and the TGI stood at 13.6 µM.
Regarding `O=C(CC(O)(C(F)(F)F)C(F)(F)F)c1cc(CC(=O)C(O)(C(F)(F)F)C(F)(F)F)cc(CC(=O)C(O)(C(F)(F)F)C(F)(F)F)c1`, the total growth inhibition concentration (TGI) amounted to 5.62 µM.
The molecule `CCc1c(OC(C)=O)c2c(NC3OC(COC(C)=O)C(OC(C)=O)C(OC(C)=O)C3OC(C)=O)nc(OC)nc2oc1=O` (configuration not stated) had a TGI of more than 100 µM.
`O=c1c2ccccc2sc2cccc(NCCCN3CCN(CCCNc4cccc5sc6ccccc6c(=O)c45)CC3)c12` came in with a TGI of more than 100 µM.
In the case of `CC1(C)OCCn2c1nc1c(N3CCOCC3)nc(-c3cnc(N)nc3)nc12`, the GI50 was 0.283 µM and the TGI worked out at 4.4 µM.
Turning to `O=C(c1c(F)ccc(NS(=O)(=O)N2CC[C@@H](F)C2)c1F)c1c[nH]c2ncc(-c3cnc(C4CC4)nc3)cc12`, the GI50 was 5.85 µM and 7.09 µM; the TGI was > 10 µM and 40.3 µM.
For the molecule `COc1cc(-c2nn(-c3cccc(NC(=O)Nc4ccc(Cl)c(Cl)c4)c3)cc2-c2ccncc2)ccc1Cl`, the GI50 is 0.745 µM and the TGI is more than 50 µM.
With `O=[N+]([O-])c1ccc(-n2nnc(C3=NCCN3)c2-c2ccc(Cl)cc2)cc1`, the TGI was more than 100 µM.
The same measure, in the same setting: the result for `O=C(c1ccc(Cl)cc1)c1cnc(Nc2ccccc2Cl)s1` reads 60.3 µM; that for `Nc1nc(N)c(N=Nc2ccc([As](=O)(O)O)cc2)c(=O)[nH]1`, more than 100 µM.

The test system of a further assay is OVCAR-4 ovarian. The assay is described as follows: DTP human tumour cell line panel, 48 h.
As for `COC12C=C/C(=C(/C(=O)OCc3ccncc3)C(=O)CCCCCCCCC3(OC)C=C/C(=C(/C(=O)OCc4ccncc4)C(=O)CCCCCCCC1)O3)O2`, the GI50 was 0.583 µM and the total growth inhibition concentration (TGI) was 3.41 µM.
Turning to `CCOC(=O)C(C)(C)Oc1ccc2c(C)c(-c3ccc(Cl)cc3)c(=O)oc2c1`, the TGI was more than 100 µM.
Consider `COc1cc(CNCCCN2C(=O)c3ccc4c5c(ccc(c35)C2=O)C(=O)N(CCCNCc2cc(OC)c(OC)c(OC)c2)C4=O)cc(OC)c1OC`, for which the concentration for 50% growth inhibition (GI50) is 0.0751 µM and the TGI was determined as 0.149 µM.
On the same counts, the results for `O=c1[nH]c(=O)n(C2CC(O)C(CO)O2)cc1CO` (configuration not stated) are more than 100 µM and more than 100 µM.
With `Cc1nc2cnc(N)c(C#Cc3cncc(C(=O)Nc4ccc(CN5CCN(C)CC5)c(C(F)(F)F)c4)c3)c2nc1C`, the GI50 is 0.119 µM and the TGI came out at 6.17 µM.
With `Cc1csc(Nc2nc(-c3cccc(Br)c3)nc(C(Cl)(Cl)Cl)n2)n1`, the GI50 is more than 100 µM and the TGI was more than 100 µM.
On to `CS(=O)(=O)CCCn1c(=O)c(Oc2ccc(F)cc2F)cc2cnc(NC3CCOCC3)nc21`, for which the GI50 was more than 25 µM and the TGI is more than 25 µM.
